Assay results published in patent US20230011869A1 (Hoffmann-La Roche Inc., priority 2018, published 2023).
Where a name gives a salt, the structure may show the parent alone.

System: Acinetobacter baumannii ATCC17978
Assay: Antimicrobial susceptibility testing: 90% growth inhibitory concentration (IC90) determination, Iso-Sensitest broth
Format: cell-based
Conditions: 90% growth inhibitory concentration, Acinetobacter baumannii ATCC17978, Iso-Sensitest broth, OD 600 nm over 16 h; read-out: ATCC17978 IC90
Method in brief: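 A. baumannii ATCC17978 grown in Iso-Sensitest broth across 10 compound concentrations at 35±2 °C.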

Structure (SMILES) | IC90 [µM]
COc1ccc(-c2cnc3c(Nc4ccc(C(=O)N5CCC(C(=O)NCCS(=O)(=O)O)CC5)c(C)c4)nccn23)cc1F [Example 303, 2-[[1-[4-[[3-(3-fluoro-4-methoxyphenyl)imidazo[1,2-a]pyrazin-8-yl]amino]-2-methylbenzoyl]piperidine-4-carbonyl]amino]ethanesulfo-nic acid] | 3.5
Cc1cc(Nc2nccn3c(-c4ccc(OCC#N)c(F)c4F)cnc23)ccc1C(=O)N1CCC(CCN)CC1 [Example 304, 2-[4-[8-[4-[4-(2-aminoethyl)piperidine-1-carbonyl]-3-methylanilino]imidazo[1,2-a]pyrazin-3-yl]-2,3-difluorophenoxy]acetonitrile] | 0.11
C#CCOc1ccc(-c2cnc3c(Nc4ccc(C(=O)N5CCC(C(=O)NCCCNC)CC5)c(C)c4)nccn23)c(F)c1F [Example 305, 1-[4-[[3-(2,3-difluoro-4-prop-2-ynoxyphenyl)imidazo[1,2-a]pyrazin-8-yl]amino]-2-methylbenzoyl]-N-[3-(methylamino)propyl]piperi-dine-4-carboxamide] | 0.1
CNCC(=O)N1CCN(C(=O)c2ccc(Nc3nccn4c(-c5ccc(OC)c(F)c5Cl)cnc34)cc2C)CC1 [Example 307, 1-[4-[4-[[3-(2-chloro-3-fluoro-4-methoxyphenyl)imidazo[1,2-a]pyrazin-8-yl]amino]-2-methylbenzoyl]piperazin-1-yl]-2-(methylamino)ethanone; hy-drochloride] | 0.097
CNCC(=O)N1CCN(C(=O)c2ccc(Nc3nccn4c(-c5ccc(OC)c(F)c5F)cnc34)cc2C)CC1 [Example 308, 1-[4-[4-[[3-(2,3-difluoro-4-methoxyphenyl)imidazo[1,2-a]pyrazin-8-yl]amino]-2-methylbenzoyl]piperazin-1-yl]-2-(methylamino)ethanone; hy-drochloride] | 0.11

Same assay, conditions: Acinetobacter baumannii, ATCC17978, 16 h, read-out: ATCC17978 IC90, 90% growth inhibitory concentration, Acinetobacter baumannii ATCC17978, Iso-Sensitest broth, OD 600 nm over 16 h

Structure (SMILES) | IC90 [µM]
Cc1cc(Nc2nccn3c(-c4ccc(OC(F)F)cc4)cnc23)ccc1C(=O)N1CCC(C(=O)NCC2CN(S(C)(=O)=O)C2)CC1 [Example 306, 1-[4-[[3-[4-(difluoromethoxy)phenyl]imi-dazo[1,2-a]pyrazin-8-yl]amino]-2-methylbenzoyl]-N-[(1-methylsulfonylazetidin-3-yl)methyl]piperidine-4-carboxamide] | 0.095
CCc1cc(Nc2nccn3c(-c4ccc(OCC#N)c(F)c4F)cnc23)ccc1C(=O)N1CCC(CCN)CC1 [Example 309, 2-[4-[8-[4-[4-(2-aminoethyl)piperidine-1-carbonyl]-3-ethylanilino]imidazo[1,2-a]pyrazin-3-yl]-2,3-difluorophenoxy]acetonitrile; formic acid] | 0.13
Cc1cc(Nc2nccn3c(-c4ccc(OC(F)F)cc4)cnc23)ccc1C(=O)N1CCC(C(=O)NCC2(F)CNC2)CC1 [Example 310, 1-[4-[[3-[4-(difluoromethoxy)phenyl]imi-dazo[1,2-a]pyrazin-8-yl]amino]-2-methylbenzoyl]-N-[(3-fluoroazetidin-3-yl)methyl]piperidine-4-carboxamide; hydrochloride] | 0.14
CN[C@@H](C)C(=O)N1CCN(C(=O)c2ccc(Nc3nccn4c(-c5ccc(OC(F)F)cc5)cnc34)cc2C)CC1 [Example 311, (2S)-1-[4-[4-[[3-[4-(difluoromethoxy)phenyl]imi-dazo[1,2-a]pyrazin-8-yl]amino]-2-methylbenzoyl]piperazin-1-yl]-2-(methylamino)propan-1-one; hydrochloride] | 0.19
Cc1cc(Nc2nccn3c(-c4ccc(OC(F)F)cc4)cnc23)ccc1C(=O)N1CCN(C(=O)C2CC3(CNC3)C2)CC1 [Example 312, [4-(2-azaspiro[3.3]heptane-6-carbonyl)piperazin-1-yl]-[4-[[3-[4-(difluoromethoxy)phenyl]imi-dazo[1,2-a]pyrazin-8-yl]amino]-2-methylphenyl]methanone; hy-drochloride] | 0.22
